The values that follow come from ChEMBL document CHEMBL1129479, “Structure-activity relationships of a new family of steroidal aromatase inhibitors. 1. Synthesis and evaluation of a series of analogs related to 19-[(methylthio)methyl]androstenedione (RU54115)” (J Med Chem, 1996).

The target of data set [1] is Aromatase (Homo sapiens, UniProt P11511). Nature of the data set: In vitro inhibition to cytochrome P450 19A1 assayed using human placental microsomes. Also on record: species or system Placenta.
For data set [2], the target named is T1, Aromatase (Rattus norvegicus, UniProt P22443).
T1 sequence (P22443 whole entry): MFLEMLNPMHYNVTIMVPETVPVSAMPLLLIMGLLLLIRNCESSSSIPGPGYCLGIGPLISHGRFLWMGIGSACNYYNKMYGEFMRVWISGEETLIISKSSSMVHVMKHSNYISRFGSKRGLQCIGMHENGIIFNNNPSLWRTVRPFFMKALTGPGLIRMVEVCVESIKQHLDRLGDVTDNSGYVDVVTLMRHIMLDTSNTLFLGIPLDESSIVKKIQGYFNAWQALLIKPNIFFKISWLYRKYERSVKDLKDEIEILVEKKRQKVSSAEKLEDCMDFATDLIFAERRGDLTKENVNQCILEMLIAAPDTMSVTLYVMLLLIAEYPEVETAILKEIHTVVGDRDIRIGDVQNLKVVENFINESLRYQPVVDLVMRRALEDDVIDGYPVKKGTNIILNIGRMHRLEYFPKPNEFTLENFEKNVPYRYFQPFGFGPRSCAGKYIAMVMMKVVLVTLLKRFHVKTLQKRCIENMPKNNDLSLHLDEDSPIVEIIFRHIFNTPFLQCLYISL
As to the kind of experiment: In vivo reduction in serum estradiol in PMSG-primed rats after 2 hr at 5 mg/kg oral dose. Type of data set: functional, organism-based. Also on record: dose 5 mg/kg, route oral; scale not given: the % may be the effect or the level left.

The target of data set [3] is T1, Aromatase. As to the kind of experiment: In vivo reduction in serum estradiol in PMSG-primed rats after 6 hr at 5 mg/kg oral dose. On the set-up: dose 5 mg/kg, route oral; scale not given: the % may be the effect or the level left. It counts as functional, organism-based.

As to `C[C@]12CC=C3C(CCC4=CC(=O)CC[C@@]43CCSC3CC3)C1CCC2=O` (stereo partly drawn), on Aromatase [1], the IC50 – broadly, the concentration that inhibits the measured activity by half – was above 1 µM. The same measure, in the same setting: next, `COCC[C@]12CCC(=O)C=C1CCC1C2=CC[C@]2(C)C(=O)CCC12` (stereo partly drawn): 10 µM. `C[C@]12CC=C3C(CCC4=CC(=O)CC[C@@]43CCSCF)C1CCC2=O` (stereo partly drawn) showed an IC50 against Aromatase [1] of 0.05 µM. Also, the results for the Control on Aromatase [2] and on Aromatase [3] were 31% and 41%, respectively.

In the case of `CSCCCC12CCC(=O)C=C1CCC1C2=CC[C@]2(C)C(=O)CCC12` (single isomer, unassigned), the IC50 against Aromatase [1] is above 10 µM. Same read-out and setting: with `C[C@]12CC=C3C(CCC4=CC(=O)CC[C@@]43CCSCCO)C1CCC2=O` (stereo partly drawn) the figure was above 1 µM. In the case of `CSCC[C@]12CCC(=O)C=C1CCC1C2=CC[C@]2(C)C(=O)CCC12` (stereo partly drawn), half-maximal inhibition against Aromatase [1] (IC50) required 0.012 µM. Besides, the Control worked out at 51% at Aromatase [2] and 50% at Aromatase [3]. In turn, `C[C@]12CC=C3C(CCC4=CC(=O)CC[C@@]43CCOS(C)(=O)=O)C1CCC2=O` (stereo partly drawn) gave an IC50 against Aromatase [1] above 10 µM. Turning to `C#CCSCC[C@]12CCC(=O)C=C1CCC1C2=CC[C@]2(C)C(=O)CCC12` (stereo partly drawn), at Aromatase [1], 1 µM corresponded to half-maximal inhibition (IC50). The Control on Aromatase [2] came to 5%; on Aromatase [3], 25%. Regarding `C[C@]12CC=C3C(CCC4=CC(=O)CC[C@@]43CC[Se]c3ccccc3)C1CCC2=O` (stereo partly drawn), the IC50 against Aromatase [1] was above 1 µM. Same read-out and setting: with `CCSCC[C@]12CCC(=O)C=C1CCC1C2=CC[C@]2(C)C(=O)CCC12` (stereo partly drawn) the figure was 0.87 µM; with `C[C@]12CC=C3C(CCC4=CC(=O)CC[C@@]43CCSc3ccccc3)C1CCC2=O` (stereo partly drawn), 0.4 µM. The same measure, in the same setting: with `C#CSCC[C@]12CCC(=O)C=C1CCC1C2=CC[C@]2(C)C(=O)CCC12` (stereo partly drawn) the figure was 0.33 µM.

In the case of `CSC(C[C@]12CCC(=O)C=C1CCC1C2=CC[C@]2(C)C(=O)CCC12)SC` (stereo partly drawn), on Aromatase [1], the IC50 is above 1 µM. Also, the Control is reported as 18% at Aromatase [2] and 13% at Aromatase [3].

With `C[C@]12CC=C3C(CCC4=CC(=O)CC[C@@]43CCSC(F)F)C1CCC2=O` (stereo partly drawn), the IC50 against Aromatase [1] was above 1 µM. For `C[C@]12CC=C3C(CCC4=CC(=O)CC[C@@]43CCSC#N)C1CCC2=O` (stereo partly drawn), the IC50 on Aromatase [1] was above 1 µM. The Control turned out to be 44% on Aromatase [2] and 38% on Aromatase [3]. For `C[C@]12CC=C3C(CCC4=CC(=O)CC[C@@]43CCI)C1CCC2=O` (stereo partly drawn), on Aromatase [1], the IC50 is above 10 µM.

Turning to `CN(C)CC[C@]12CCC(=O)C=C1CCC1C2=CC[C@]2(C)C(=O)CCC12` (stereo partly drawn), the IC50 at Aromatase [1] is above 10 µM. At Aromatase [1], `CSCC[C@]12CCC(=O)C=C1CCC1C2CC[C@]2(C)C(=O)CCC12` (stereo partly drawn) yielded an IC50 of 0.022 µM. Besides, the Control at Aromatase [2] was determined as 11%; on Aromatase [3] it was 16%. In the same order, the values of `CSC(=O)C[C@]12CCC(=O)C=C1CCC1C2CC[C@]2(C)C(=O)CCC12` (stereo partly drawn) are 0.042 µM, 37% and 49%. `C[C@]12CC=C3C(CCC4=CC(=O)CC[C@@]43CCSSc3ccccc3)C1CCC2=O` (stereo partly drawn) came in with an IC50 against Aromatase [1] above 1 µM. Also, the Control at Aromatase [2] was 43%; on Aromatase [3], 62%.

At Aromatase [1], `CCSC(C[C@]12CCC(=O)C=C1CCC1C2=CC[C@]2(C)C(=O)CCC12)SCC` (stereo partly drawn) showed an IC50 above 1 µM.

The compound `C[C@]12CC=C3C(CCC4=CC(=O)CC[C@@]43CCSCCS)C1CCC2=O` (stereo partly drawn) showed an IC50 against Aromatase [1] above 1 µM. On the same count and under the same terms, next, `CS[C@]12CCC(=O)C=C1CCC1C2=CC[C@]2(C)C(=O)CCC12` (stereo partly drawn): 7.4 µM. As to `CSSCC[C@]12CCC(=O)C=C1CCC1C2=CC[C@]2(C)C(=O)CCC12` (stereo partly drawn), the IC50 against Aromatase [1] was above 1 µM. For the same compound, the Control on Aromatase [2] turned out to be 7%; on Aromatase [3], 23%. As for `CC(=O)SCC[C@]12CCC(=O)C=C1CCC1C2=CC[C@]2(C)C(=O)CCC12` (stereo partly drawn), on Aromatase [1], the IC50 is above 10 µM. Also, the Control worked out at 21% on Aromatase [2] and 10% at Aromatase [3].

Consider `CSCSCC[C@]12CCC(=O)C=C1CCC1C2=CC[C@]2(C)C(=O)CCC12` (stereo partly drawn), for which the IC50 against Aromatase [1] was found to be 0.57 µM. For `C[C@]12CC=C3C(CCC4=CC(=O)CC[C@@]43CCSSc3ccc([N+](=O)[O-])cc3[N+](=O)[O-])C1CCC2=O` (stereo partly drawn), at Aromatase [1], the IC50 is above 1 µM. Moreover, the Control at Aromatase [2] was found to be 27%; on Aromatase [3] it was 32%. As to `C=CCSCC[C@]12CCC(=O)C=C1CCC1C2=CC[C@]2(C)C(=O)CCC12` (stereo partly drawn), the IC50 against Aromatase [1] came to 0.27 µM.

Compound `C=CSCC[C@]12CCC(=O)C=C1CCC1C2=CC[C@]2(C)C(=O)CCC12` (stereo partly drawn) returned an IC50 at Aromatase [1] of 0.05 µM. Moreover, the results for the Control on Aromatase [2] and on Aromatase [3] were 25% and 24%, respectively.
